According to US6355799B1, “Substituted benzene compounds, process for their preparation, and herbicidal and defoliant compositions containing them” (ISK Americas Incorporated, priority 1997, dated 2002):

Key:
Format in all cases: in vivo
[1] = test system: velvetleaf (Abutilon theophrasti, ABUTH); assay: Post-emerge test, greenhouse herbicide activity screening; settings: post-emerge; for phytotoxicity rating ABUTH: 14 days after application, rating scale 0-100; for Post-emerge Herbicidal Activity ABUTH: phytotoxicity rating 0-100 at 14 days after application
Summary of the method: (§1)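 Compounds in acetone were track-sprayed at 15-1000 g ai/ha (187 l/ha) on sandy loam pots: pre-emerge one day after seeding, post-emerge at 2-3 leaf stage with 0.25% v/v non-ionic surfactant. Phytotoxicity was rated 14 days later on a 0 (no damage) to 100 (complete death) scale.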

[2] = test system: green foxtail (Setaria viridis, SETVI); assay: as above; settings: post-emerge; for phytotoxicity rating SETVI: 14 days after application, rating scale 0-100; for Post-emerge Herbicidal Activity SETVI: phytotoxicity rating 0-100 at 14 days after application
Summary of the method: as §1

[3] = test system: redroot pigweed (Amaranthus retroflexus, AMARE); assay: as above; settings: post-emerge; for phytotoxicity rating AMARE: 14 days after application; for Post-emerge Herbicidal Activity AMARE: phytotoxicity rating 0-100 at 14 days after application
Summary of the method: as §1

[4] = test system: barnyardgrass (Echinochloa crus-galli, ECHCG); assay: as above; settings: post-emerge; for phytotoxicity rating ECHCG: 14 days after application, rating scale 0-100; for Post-emerge Herbicidal Activity ECHCG: phytotoxicity rating 0-100 at 14 days after application
Summary of the method: as §1

[5] = test system: lambsquarters (Chenopodium album, CHEAL); assay: as above; settings: post-emerge; for phytotoxicity rating CHEAL: 14 days after application, rating scale 0-100; for Post-emerge Herbicidal Activity CHEAL: phytotoxicity rating 0-100 at 14 days after application
Summary of the method: as §1

[6] = test system: large crabgrass (Digitaria sanguinalis, DIGSA); assay: as above; settings: post-emerge; for phytotoxicity rating DIGSA: 14 days after application, rating scale 0-100; for Post-emerge Herbicidal Activity DIGSA: phytotoxicity rating 0-100 at 14 days after application
Summary of the method: as §1

[7] = test system: sicklepod (Cassia obtusifolia, CASOB); assay: as above; settings: post-emerge; for phytotoxicity rating CASOB: 14 days after application, rating scale 0-100; for Post-emerge Herbicidal Activity CASOB: phytotoxicity rating 0-100 at 14 days after application
Summary of the method: as §1

[8] = test system: johnsongrass (Sorghum halepense, SORHA); assay: as above; settings: post-emerge; for phytotoxicity rating SORHA: 14 days after application, rating scale 0-100; for Post-emerge Herbicidal Activity SORHA: phytotoxicity rating 0-100 at 14 days after application
Summary of the method: as §1

[9] = test system: ivyleaf morningglory (Ipomoea hederacea, IPOHE); assay: as above; settings: post-emerge; for phytotoxicity rating IPOHE: 14 days after application, rating scale 0-100; for Post-emerge Herbicidal Activity IPOHE: phytotoxicity rating 0-100 at 14 days after application
Summary of the method: as §1

[10] = test system: velvetleaf (Abutilon theophrasti, ABUTH); assay: Pre-emerge test, greenhouse herbicide activity screening; settings: pre-emerge, phytotoxicity rating 0-100 at 14 days after application
Summary of the method: (§2)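 Fourteen days after spraying, crop and weed injury was graded visually from 0, no effect, to 100, every plant dead. Test substances were dissolved in acetone and applied at 15–1000 g ai/ha with a flat-fan nozzle. Application was either pre-emergence, one day after sowing, or post-emergence at the 2–3 leaf stage.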

[11] = test system: green foxtail (Setaria viridis, SETVI); assay: as above; settings: pre-emerge, phytotoxicity rating 0-100 at 14 days after application
Summary of the method: as §2

[12] = test system: barnyardgrass (Echinochloa crus-galli, ECHCG); assay: as above; settings: pre-emerge, phytotoxicity rating 0-100 at 14 days after application
Summary of the method: as §2

[13] = test system: lambsquarters (Chenopodium album, CHEAL); assay: as above; settings: pre-emerge, phytotoxicity rating 0-100 at 14 days after application
Summary of the method: as §2

[14] = test system: large crabgrass (Digitaria sanguinalis, DIGSA); assay: as above; settings: pre-emerge, phytotoxicity rating 0-100 at 14 days after application
Summary of the method: as §2

[15] = test system: sicklepod (Cassia obtusifolia, CASOB); assay: as above; settings: pre-emerge, phytotoxicity rating 0-100 at 14 days after application
Summary of the method: as §2

[16] = test system: johnsongrass (Sorghum halepense, SORHA); assay: as above; settings: pre-emerge, phytotoxicity rating 0-100 at 14 days after application
Summary of the method: as §2

[17] = test system: ivyleaf morningglory (Ipomoea hederacea, IPOHE); assay: as above; settings: pre-emerge, phytotoxicity rating 0-100 at 14 days after application
Summary of the method: as §2

[18] = test system: redroot pigweed (Amaranthus retroflexus, AMARE); assay: as above; settings: pre-emerge, phytotoxicity rating 0-100 at 14 days after application
Summary of the method: (§3)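 Sandy loam pots; pre-emerge: sown 1 d pre-spray, surface-watered after, then bottom-watered. Post-emerge: sown 8–21 d before, 2–3 leaf stage, + 0.25% v/v NIS, bottom-watered. Acetone, 187 l/ha track spray, 15–1000 g ai/ha. 0–100 injury score, day 14.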

[19] = test system: field corn (Zea mays L., var. Dekalb 535, CORN); assay: Post-emerge test, crop safety; settings: post-emerge; for phytotoxicity rating CORN (crop damage): 14 days after application, rating scale 0-100; for Post-emerge Herbicidal Activity CORN: crop damage rating 0-100 at 14 days after application
Summary of the method: as §2

[20] = test system: upland rice (Oryza sp., var. Tebonnet, RICE); assay: Post-emerge test, crop safety; settings: post-emerge; for phytotoxicity rating RICE (crop damage): 14 days after application, rating scale 0-100; for Post-emerge Herbicidal Activity RICE: crop damage rating 0-100 at 14 days after application
Summary of the method: as §2

[21] = test system: field corn (Zea mays L., var. Dekalb 535, CORN); assay: Pre-emerge test, crop safety; settings: crop damage, pre-emerge, phytotoxicity rating 0-100 at 14 days after application
Summary of the method: as §3

[22] = test system: upland rice (Oryza sp., var. Tebonnet, RICE); assay: Pre-emerge test, crop safety; settings: crop damage, pre-emerge, phytotoxicity rating 0-100 at 14 days after application
Summary of the method: as §3

## Cc1c(Cl)cc(F)c(-n2c(=O)cc(C(F)(F)F)n(C)c2=O)c1NC(=O)OCCc1ccccc1 [4-57]
[1]; 63 g ai/ha
  phytotoxicity rating ABUTH: 100
[1]; 250 g ai/ha
  phytotoxicity rating ABUTH: 100
[2]; 63 g ai/ha
  phytotoxicity rating SETVI: 50
[2]; 250 g ai/ha
  phytotoxicity rating SETVI: 90
[3]; 63 g ai/ha, rating scale 0-100 (0 no damage, 100 complete death)
  phytotoxicity rating AMARE: 100
[3]; 250 g ai/ha, rating scale 0-100
  phytotoxicity rating AMARE: 100
[4]; 63 g ai/ha
  phytotoxicity rating ECHCG: 30
[4]; 250 g ai/ha
  phytotoxicity rating ECHCG: 40
[5]; 63 g ai/ha
  phytotoxicity rating CHEAL: 95
[5]; 250 g ai/ha
  phytotoxicity rating CHEAL: 100
[6]; 63 g ai/ha
  phytotoxicity rating DIGSA: 10
[6]; 250 g ai/ha
  phytotoxicity rating DIGSA: 60
[7]; 63 g ai/ha
  phytotoxicity rating CASOB: 60
[7]; 250 g ai/ha
  phytotoxicity rating CASOB: 100
[8]; 63 g ai/ha
  phytotoxicity rating SORHA: 30
[8]; 250 g ai/ha
  phytotoxicity rating SORHA: 50
[9]; 63 g ai/ha
  phytotoxicity rating IPOHE: 100
[9]; 250 g ai/ha
  phytotoxicity rating IPOHE: 100
[10]; rate 63 g ai/ha
  Pre-emerge Herbicidal Activity ABUTH: 100
[10]; rate 250 g ai/ha
  Pre-emerge Herbicidal Activity ABUTH: 100
[11]; rate 63 g ai/ha
  Pre-emerge Herbicidal Activity SETVI: 80
[11]; rate 250 g ai/ha
  Pre-emerge Herbicidal Activity SETVI: 100
[12]; rate 63 g ai/ha
  Pre-emerge Herbicidal Activity ECHCG: 20
[12]; rate 250 g ai/ha
  Pre-emerge Herbicidal Activity ECHCG: 75
[13]; rate 63 g ai/ha
  Pre-emerge Herbicidal Activity CHEAL: 100
[13]; rate 250 g ai/ha
  Pre-emerge Herbicidal Activity CHEAL: 100
[14]; rate 63 g ai/ha
  Pre-emerge Herbicidal Activity DIGSA: 60
[14]; rate 250 g ai/ha
  Pre-emerge Herbicidal Activity DIGSA: 95
[15]; rate 63 g ai/ha
  Pre-emerge Herbicidal Activity CASOB: 10
[15]; rate 250 g ai/ha
  Pre-emerge Herbicidal Activity CASOB: 100
[16]; rate 63 g ai/ha
  Pre-emerge Herbicidal Activity SORHA: 10
[16]; rate 250 g ai/ha
  Pre-emerge Herbicidal Activity SORHA: 70
[17]; rate 63 g ai/ha
  Pre-emerge Herbicidal Activity IPOHE: 50
[18]; rate 63 g ai/ha
  Pre-emerge Herbicidal Activity AMARE: 95
[18]; rate 250 g ai/ha
  Pre-emerge Herbicidal Activity AMARE: 100
[19]; 63 g ai/ha
  phytotoxicity rating CORN (crop damage): 40
[19]; 250 g ai/ha
  phytotoxicity rating CORN (crop damage): 90
[20]; 63 g ai/ha
  phytotoxicity rating RICE (crop damage): 50
[20]; 250 g ai/ha
  phytotoxicity rating RICE (crop damage): 80
[21]; rate 63 g ai/ha
  Pre-emerge Herbicidal Activity CORN: 0
[21]; rate 250 g ai/ha
  Pre-emerge Herbicidal Activity CORN: 45
[22]; rate 63 g ai/ha
  Pre-emerge Herbicidal Activity RICE: 20
[22]; rate 250 g ai/ha
  Pre-emerge Herbicidal Activity RICE: 70

## COc1ccccc1COC(=O)Nc1c(C)c(Cl)cc(F)c1-n1c(=O)cc(C(F)(F)F)n(C)c1=O [4-58]
[1]; 63 g ai/ha
  Post-emerge Herbicidal Activity ABUTH: 100
[1]; 250 g ai/ha
  Post-emerge Herbicidal Activity ABUTH: 100
[2]; 63 g ai/ha
  Post-emerge Herbicidal Activity SETVI: 50
[2]; 250 g ai/ha
  Post-emerge Herbicidal Activity SETVI: 90
[3]; 63 g ai/ha
  Post-emerge Herbicidal Activity AMARE: 100
[3]; 250 g ai/ha
  Post-emerge Herbicidal Activity AMARE: 100
[4]; 63 g ai/ha
  Post-emerge Herbicidal Activity ECHCG: 30
[4]; 250 g ai/ha
  Post-emerge Herbicidal Activity ECHCG: 40
[5]; 63 g ai/ha
  Post-emerge Herbicidal Activity CHEAL: 100
[5]; 250 g ai/ha
  Post-emerge Herbicidal Activity CHEAL: 100
[6]; 63 g ai/ha
  Post-emerge Herbicidal Activity DIGSA: 20
[6]; 250 g ai/ha
  Post-emerge Herbicidal Activity DIGSA: 60
[7]; 63 g ai/ha
  Post-emerge Herbicidal Activity CASOB: 90
[7]; 250 g ai/ha
  Post-emerge Herbicidal Activity CASOB: 100
[8]; 63 g ai/ha
  Post-emerge Herbicidal Activity SORHA: 30
[8]; 250 g ai/ha
  Post-emerge Herbicidal Activity SORHA: 50
[9]; 63 g ai/ha
  Post-emerge Herbicidal Activity IPOHE: 100
[9]; 250 g ai/ha
  Post-emerge Herbicidal Activity IPOHE: 100
[10]; rate 63 g ai/ha
  Pre-emerge Herbicidal Activity ABUTH: 100
[10]; rate 250 g ai/ha
  Pre-emerge Herbicidal Activity ABUTH: 100
[11]; rate 63 g ai/ha
  Pre-emerge Herbicidal Activity SETVI: 80
[11]; rate 250 g ai/ha
  Pre-emerge Herbicidal Activity SETVI: 100
[12]; rate 63 g ai/ha
  Pre-emerge Herbicidal Activity ECHCG: 30
[12]; rate 250 g ai/ha
  Pre-emerge Herbicidal Activity ECHCG: 70
[13]; rate 63 g ai/ha
  Pre-emerge Herbicidal Activity CHEAL: 100
[13]; rate 250 g ai/ha
  Pre-emerge Herbicidal Activity CHEAL: 100
[14]; rate 63 g ai/ha
  Pre-emerge Herbicidal Activity DIGSA: 30
[14]; rate 250 g ai/ha
  Pre-emerge Herbicidal Activity DIGSA: 100
[15]; rate 63 g ai/ha
  Pre-emerge Herbicidal Activity CASOB: 70
[15]; rate 250 g ai/ha
  Pre-emerge Herbicidal Activity CASOB: 100
[16]; rate 63 g ai/ha
  Pre-emerge Herbicidal Activity SORHA: 20
[16]; rate 250 g ai/ha
  Pre-emerge Herbicidal Activity SORHA: 60
[17]; rate 63 g ai/ha
  Pre-emerge Herbicidal Activity IPOHE: 30
[17]; rate 250 g ai/ha
  Pre-emerge Herbicidal Activity IPOHE: 100
[18]; rate 63 g ai/ha
  Pre-emerge Herbicidal Activity AMARE: 100
[18]; rate 250 g ai/ha
  Pre-emerge Herbicidal Activity AMARE: 100
[19]; 63 g ai/ha
  Post-emerge Herbicidal Activity CORN: 30
[19]; 250 g ai/ha
  Post-emerge Herbicidal Activity CORN: 70
[20]; 63 g ai/ha
  Post-emerge Herbicidal Activity RICE: 60
[20]; 250 g ai/ha
  Post-emerge Herbicidal Activity RICE: 75
[21]; rate 63 g ai/ha
  Pre-emerge Herbicidal Activity CORN: 0
[21]; rate 250 g ai/ha
  Pre-emerge Herbicidal Activity CORN: 25
[22]; rate 63 g ai/ha
  Pre-emerge Herbicidal Activity RICE: 30
[22]; rate 250 g ai/ha
  Pre-emerge Herbicidal Activity RICE: 70
